Reference: US11814412B2, “Artificial proteins and compositions and methods thereof” (The Trustees of the University of Pennsylvania, priority 2015, dated 2023)

Biological target: 3M, mammalian maquette MR reporter (de novo heme-binding maquette protein)
Settings: read-out: Kd (heme-binding affinity), current (preliminary) 3M before directed evolution

C=CC1=C(C)c2cc3[nH]c(cc4nc(cc5[nH]c(cc1n2)c(C)c5CCC(=O)O)C(CCC(=O)O)=C4C)c(C)c3C=C.[Fe] [heme]
Kd: ~1000 nM
